Patent US12410160B2 (Gilead Sciences, Inc., priority 2021, dated 2025)

Legend:
human KHK-A = human KHK-A (Homo sapiens (Human), UniProt P50053); test: KHK Biochemical Assay (IC50), ADP-Glo, KHK-A; conditions: ADP-Glo; average of at least two separate assays
Experimental: (§1) The His-tagged fusion protein was expressed using BL21 (DE3) with IPTG induction and purified using Ni-NTA column followed by dialysis into final buffer containing 25 mM Tris-HCl pH 8.0, 250 mM NaCl.
(§2) KHK Biochemical Assay (IC50)
(§3) Compounds were tested for KHK enzyme inhibition in a high-throughput 384-well assay format using the ADP-Glo assay (Promega) in buffer consisting of 50 mM Hepes (pH 7.4), 140 mM KCl, 5 mM MgCl2 and 0.01% Triton-X. 0.2 nM. […] Compounds were serially diluted (1:3) in DMSO.
(§4) The compounds were pre-incubated with 5 μL of 2× final enzyme concentration for 30 minutes before adding 5 μL of 2× final concentration of ATP and fructose. The plates were incubated at room temperature for 4 hours before adding ADP-Glo reagent to quench the enzyme reaction, followed by incubation at room temperature for 1 hour. The ADP-Glo detection reagent was then added to the plates and luminescence was measured on the Envision plate reader after 1 hour.

human KHK-C = human KHK-C (Homo sapiens (Human), UniProt P50053); test: KHK Biochemical Assay (IC50), ADP-Glo, KHK-C; conditions: ADP-Glo; average of at least two separate assays
Chain of human KHK-C (P50053 whole entry): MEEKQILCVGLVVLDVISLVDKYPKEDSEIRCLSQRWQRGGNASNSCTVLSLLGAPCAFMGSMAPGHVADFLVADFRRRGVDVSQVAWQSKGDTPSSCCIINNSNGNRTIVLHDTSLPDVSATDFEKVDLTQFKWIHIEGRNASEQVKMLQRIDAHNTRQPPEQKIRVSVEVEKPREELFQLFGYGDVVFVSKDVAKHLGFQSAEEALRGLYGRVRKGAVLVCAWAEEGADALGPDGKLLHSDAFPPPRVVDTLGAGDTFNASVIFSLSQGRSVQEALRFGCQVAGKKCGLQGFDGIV
Experimental: as §1, §2, §3, §4

Chain of human KHK-A (P50053 other isoform, or with tags, fused parts or gaps): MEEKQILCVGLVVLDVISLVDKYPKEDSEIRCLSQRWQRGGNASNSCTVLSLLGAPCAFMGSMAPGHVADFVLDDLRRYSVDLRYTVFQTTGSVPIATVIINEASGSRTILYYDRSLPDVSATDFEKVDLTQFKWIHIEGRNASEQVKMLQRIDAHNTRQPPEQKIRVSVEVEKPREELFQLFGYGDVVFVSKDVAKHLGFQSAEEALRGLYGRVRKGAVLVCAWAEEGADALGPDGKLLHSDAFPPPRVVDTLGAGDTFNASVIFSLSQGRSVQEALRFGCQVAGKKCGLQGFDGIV

| IC50 (human KHK-A) [nM] | IC50 (human KHK-C) [nM] | Compound |
| --- | --- | --- |
| 54.3 | 57 | CC(=O)Nc1cccc(-c2nc(N3CC[C@@H]3C)nc3c2CCC3)c1 [Example 40, (S)—N-(3-(2-(2-methylazetidin-1-yl)-6,7-dihydro-5H-cyclopenta[d]pyrimidin-4-yl)phenyl)acetamide] |
| 31.8 | 22.7 | C[C@H]1CCN1c1nc2c(c(-c3cccc(NS(C)(=O)=O)c3)n1)CCC2 [Example 42, (S)—N-(3-(2-(2-methylazetidin-1-yl)-6,7-dihydro-5H-cyclopenta[d]pyrimidin-4-yl)phenyl)methanesulfonamide] |
| 22.2 | 42.7 | C[C@H]1CCN1c1nc2c(c(-c3cccc(C(=O)NCCN)c3)n1)CCC2 [Example 52, (S)—N-(2-aminoethyl)-3-(2-(2-methylazetidin-1-yl)-6,7-dihydro-5H-cyclopenta[d]pyrimidin-4-yl)benzamide] |
| 130 | 194 | CNCCNC(=O)c1cccc(-c2nc(N3CC[C@@H]3C)nc3c2CCC3)c1 [Example 53, (S)—N-(2-(methylamino)ethyl)-3-(2-(2-methylazetidin-1-yl)-6,7-dihydro-5H-cyclopenta[d]pyrimidin-4-yl)benzamide] |
| 42 | 40.4 | C[C@H]1CCN1c1nc2c(c(-c3cccc(S(=O)(=O)NCCO)c3)n1)CCC2 [Example 54, (S)—N-(2-hydroxyethyl)-3-(2-(2-methylazetidin-1-yl)-6,7-dihydro-5H-cyclopenta[d]pyrimidin-4-yl)benzenesulfonamide] |
| 56.8 | 90.3 | C[C@H]1CCN1c1nc2c(c(-c3cccc(C(=O)NCCO)c3)n1)CCC2 [Example 61, (S)—N-(2-hydroxyethyl)-3-(2-(2-methylazetidin-1-yl)-6,7-dihydro-5H-cyclopenta[d]pyrimidin-4-yl)benzamide] |
| 52.7 | 107 | C[C@H]1CCN1c1nc2c(c(-c3cccc(C(=O)Nc4cn[nH]c4)c3)n1)CCC2 [Example 64, (S)-3-(2-(2-methylazetidin-1-yl)-6,7-dihydro-5H-cyclopenta[d]pyrimidin-4-yl)-N-(1H-pyrazol-4-yl)benzamide] |
| 150 | 245 | C[C@H]1CCN1c1nc2c(c(-c3cccc(C(=O)Nc4cc[nH]n4)c3)n1)CCC2 [Example 65, (S)-3-(2-(2-methylazetidin-1-yl)-6,7-dihydro-5H-cyclopenta[d]pyrimidin-4-yl)-N-(1H-pyrazol-3-yl)benzamide] |
| 107 | 104 | C[C@H]1CCN1c1nc2c(c(-c3cccc(N)c3)n1)CCC2 [Example 71, (S)-3-(2-(2-methylazetidin-1-yl)-6,7-dihydro-5H-cyclopenta[d]pyrimidin-4-yl)aniline] |
| 175 | 156 | C[C@H]1CCN1c1nc2c(c(-c3cccc(NS(=O)(=O)c4cn(C)cn4)c3)n1)CCC2 [Example 73, (S)-1-methyl-N-(3-(2-(2-methylazetidin-1-yl)-6,7-dihydro-5H-cyclopenta[d]pyrimidin-4-yl)phenyl)-1H-imidazole-4-sulfonamide] |

Further lines, the molecule ahead of its results:

| Compound | IC50 (human KHK-A) [nM] | IC50 (human KHK-C) [nM] |
| --- | --- | --- |
| C[C@H]1CCN1c1nc(-c2ccccc2)c2c(n1)C1CCC2C1 (stereo partly drawn) [Example 31, 2-((S)-2-methylazetidin-1-yl)-4-phenyl-5,6,7,8-tetrahydro-5,8-methanoquinazoline] | 935 | 1480 |
| C[C@H]1[C@H](O)CN1c1nc2c(c(-c3cccc(C(N)=O)c3)n1)CCC2 [Example 32] | 86.8 | 125 |
| C[C@H]1CCN1c1nc(-c2cccc(C(N)=O)c2)c2c(n1)C1CCC2C1 (stereo partly drawn) [Example 33, 3-(2-((S)-2-methylazetidin-1-yl)-5,6,7,8-tetrahydro-5,8-methanoquinazolin-4-yl)benzamide] | 272 | 240 |
| C[C@H]1CCN1c1nc(-c2cn[nH]c2)c2c(cnn2C)n1 [Example 35, (S)-1-methyl-5-(2-methylazetidin-1-yl)-7-(1H-pyrazol-4-yl)-1H-pyrazolo[4,3-d]pyrimidine] | 189 | 220 |
| C[C@H]1CCN1c1nc(-c2cccc(S(N)(=O)=O)c2)c2c(cnn2C)n1 [Example 37, (S)-3-(1-methyl-5-(2-methylazetidin-1-yl)-1H-pyrazolo[4,3-d]pyrimidin-7-yl)benzenesulfonamide] | 224 | 213 |
| C[C@H]1CCN1c1nc2c(c(-c3cccs3)n1)CCC2 [Example 45, (S)-2-(2-methylazetidin-1-yl)-4-(thiophen-2-yl)-6,7-dihydro-5H-cyclopenta[d]pyrimidine] | 118 | 108 |
| C[C@H]1CCN1c1nc2c(c(-c3cccc(C4CC4C(=O)O)c3)n1)CCC2 (stereo partly drawn) [Example 46, 2-(3-(2-((S)-2-methylazetidin-1-yl)-6,7-dihydro-5H-cyclopenta[d]pyrimidin-4-yl)phenyl)cyclopropane-1-carboxylic acid] | 10 | 7.6 |
| C[C@H]1CCN1c1nc2c(c(-c3ccc(C#N)s3)n1)CCC2 [Example 49, (S)-5-(2-(2-methylazetidin-1-yl)-6,7-dihydro-5H-cyclopenta[d]pyrimidin-4-yl)thiophene-2-carbonitrile] | 125 | 222 |
| C[C@H]1CCN1c1nc2c(c(-c3cccc(C(=O)NCCNC(=O)OC(C)(C)C)c3)n1)CCC2 [Example 51, tert-butyl (S)-(2-(3-(2-(2-methylazetidin-1-yl)-6,7-dihydro-5H-cyclopenta[d]pyrimidin-4-yl)benzamido)ethyl)carbamate] | 144 | 309 |
| C[C@H]1CCN1c1nc2c(c(-c3ccc(-c4ccccc4)nc3)n1)CCC2 [Example 55, (S)-2-(2-methylazetidin-1-yl)-4-(6-phenylpyridin-3-yl)-6,7-dihydro-5H-cyclopenta[d]pyrimidine] | 1080 | 801 |
| C[C@H]1CCN1c1nc2c(c(-c3ccc(C(N)=O)s3)n1)CCC2 [Example 56, (S)-5-(2-(2-methylazetidin-1-yl)-6,7-dihydro-5H-cyclopenta[d]pyrimidin-4-yl)thiophene-2-carboxamide] | 3.8 | 7.7 |
| C[C@H]1CCN1c1nc(-c2cccc(C(N)=O)c2)c2c(n1)[C@H]1CC[C@@H]2C1 [Example 62, 3-((5R,8S)-2-((S)-2-methylazetidin-1-yl)-5,6,7,8-tetrahydro-5,8-methanoquinazolin-4-yl)benzamide] | 1920 | 2930 |
| C[C@H]1CCN1c1nc2c(c(-c3cccc(C(=O)NC4(C(=O)O)CC4)c3)n1)CCC2 [Example 67, (S)-1-(3-(2-(2-methylazetidin-1-yl)-6,7-dihydro-5H-cyclopenta[d]pyrimidin-4-yl)benzamido)cyclopropane-1-carboxylic acid] | 128 | 140 |
| C[C@H]1CCN1c1nc2c(c(-c3cccc(C(=O)N4CC(C(=O)O)C4)c3)n1)CCC2 [Example 68, (S)-1-(3-(2-(2-methylazetidin-1-yl)-6,7-dihydro-5H-cyclopenta[d]pyrimidin-4-yl)benzoyl)azetidine-3-carboxylic acid] | 94.3 | 45.1 |
| C[C@H]1CCN1c1nc2c(c(-c3cccc(C(=O)N4CC(CC(=O)O)C4)c3)n1)CCC2 [Example 69, (S)-2-(1-(3-(2-(2-methylazetidin-1-yl)-6,7-dihydro-5H-cyclopenta[d]pyrimidin-4-yl)benzoyl)azetidin-3-yl)acetic acid] | 286 | 145 |
